Measurements from patent US20230190887A1, “TARGETING G3BP AGGREGATION TO PREVENT NEURODEGENERATION” (priority 2019, published 2023).

Tests used:
C9ORF72 iPS-MN axons = test: OPP labeling of local protein synthesis in iPS-MN axons; type: cell-based, human; details: axonal-exclusive application of 20 μM peptide
From the text: Formation of G3BP1-positive RNP condensates is strongly associated with repressed RNA translation, see Sahoo, P. K. et al. A Ca^2+ dependent switch activates axonal casein kinase 2α translation and drives G3BP1 granule disassembly for axon regeneration. Curr. Biol. 30, 4882-4895.e6 (2020), and altered mRNA transport, see Liao, Y. C. et al. RNA granules hitchhike on lysosomes for long-distance transport, using Annexin All as a molecular tether. Cell 179, 147-164.e20 (2019), leading to reduced protein synthesis, see Sahoo, P. K. et al. Axonal G3BP1 stress granule protein limits axonal mRNA translation and nerve regeneration. Nat. Commun. 9, 1-14 (2018). […] By quantifying OPP puncta density within in vitro NMJs, we identified robust protein synthesis within control co-cultures, while protein synthesis in TDPΔNLS NMJs was severely impaired (FIG. 19 3k-l). […] Unpaired-t-test, two-sided ****p<0.0001. c Images and d-f quantification of NFH, pTDP-43 and G3BP1 and their colocalization in C9ORF72 iPS-MN axons either treated or not with G3BP1 peptide. Quantifications of G3BP1 particle density (d), G3BP1-pTDP-43 coloc-particle density (e) and G3BP1-pTDP-43 coloc-particle size (f) from C9ORF72 and control iPS-MN axons, either treated or not with G3BP1 peptide. […] One-way-ANOVA with Holm-Sidak correction. […], ****p<0.0001. i Images and j quantification of OPP puncta density in control or ΔNLS MN axons. […]

E12.5 motor neurons = test: MPP+-induced degeneration of motor neuron neurites (in vitro ALS model); type: cell-based, mouse; details: DIV7 E12.5 motor neurons, 100 μM MPP+ 16-18 hours, with 10 μM peptide
Protocol: Non-treated cultures were used as controls (FIG. 3A).
(A) Quantification of mitotoxin/neurotoxin MPP+-induced degeneration of DIV7 E12.5 motor neuron neurites after exposure of cultures to 100 μM MPP+ and either 10 μM 190-208 G3BP1 or 168-189 control peptide. As controls, neurons treated with solvents were used. (B) Representative images of G3BP1 (green) and NF-labeled (red) E12.5 motor neurons under control or after treatment with 100 μM MPP+ [scale bar=10 μm]. (C) distribution of sizes of endogenous G3BP1 aggregate per 100 μm neurite is shown as indicated bins from motor neurons cultures as treated in (B). (N≥80 neurites over three repetitions; by one-way ANOVA with Tukey HSD post-hoc). […] (D) Endogenous G3BP1 aggregate sizes per 100 μm neurite indicated as bins for motor neurons either untreated or treated with MPP+ alone or with addition of 10 μM 190-208 G3BP1 or 168-189 control peptide. […] (N≥90 over 3 cultures; by one-way ANOVA with Tukey HSD post-hoc)

## YGNKKNNNQNNN-VVEPEPEPEPEPEPEPVSE [G3BP1 190-208 peptide]
C9ORF72 iPS-MN axons
  OPP puncta density (axonal translation): reversed
E12.5 motor neurons
  MPP+-induced degeneration of motor neuron neurites: prevents mitotoxin-induced degeneration
E12.5 motor neurons; listed as G3BP1 190-208
  MPP+-induced degeneration of motor neuron neurites: protected against MPP+-induced degeneration
